The record followed here is paper PMC7305236, “The atypical chemokine receptor ACKR3/CXCR7 is a broad-spectrum scavenger for opioid peptides” (Nature Communications, 2020).

The structures appear in SMILES notation. Where two headings read alike, the source gives them in different places. Starred links: 1 amine or outer side, 2 acyl side, 3 side chain; linkers in the order of their positions; H or OH if unused. Non-standard residues stand in square brackets, D forms with d. Residues, ends and D or L forms follow the SMILES beside them. X1 = N[C@@H](Cc1ccccc1)CN(CC(=O)[*:2])[*:1]

Holding throughout (experiment): Figure S2a opioid peptide screen on chemokine receptors
Holding throughout (type): cell-based
Parameters in all cases: dose or concentration left out as unconfirmed

The target of one assay is T1, CCR1 (Homo sapiens, UniProt P32246).
T1 construct: expressed in transfected cells
T1 sequence (P32246 1-355): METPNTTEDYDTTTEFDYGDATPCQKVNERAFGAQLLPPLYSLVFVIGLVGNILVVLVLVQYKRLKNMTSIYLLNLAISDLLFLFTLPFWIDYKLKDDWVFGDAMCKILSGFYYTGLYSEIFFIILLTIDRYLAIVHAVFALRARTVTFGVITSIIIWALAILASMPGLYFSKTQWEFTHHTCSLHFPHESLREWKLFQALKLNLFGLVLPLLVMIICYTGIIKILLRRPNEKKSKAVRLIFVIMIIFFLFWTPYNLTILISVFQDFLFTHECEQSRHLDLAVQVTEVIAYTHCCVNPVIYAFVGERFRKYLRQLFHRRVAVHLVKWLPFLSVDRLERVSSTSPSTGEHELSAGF

Another assay deals with T2, CCR2 (Homo sapiens, UniProt P41597).
T2 construct: expressed in transfected cells
T2 sequence (P41597 1-360 isoform P41597-2): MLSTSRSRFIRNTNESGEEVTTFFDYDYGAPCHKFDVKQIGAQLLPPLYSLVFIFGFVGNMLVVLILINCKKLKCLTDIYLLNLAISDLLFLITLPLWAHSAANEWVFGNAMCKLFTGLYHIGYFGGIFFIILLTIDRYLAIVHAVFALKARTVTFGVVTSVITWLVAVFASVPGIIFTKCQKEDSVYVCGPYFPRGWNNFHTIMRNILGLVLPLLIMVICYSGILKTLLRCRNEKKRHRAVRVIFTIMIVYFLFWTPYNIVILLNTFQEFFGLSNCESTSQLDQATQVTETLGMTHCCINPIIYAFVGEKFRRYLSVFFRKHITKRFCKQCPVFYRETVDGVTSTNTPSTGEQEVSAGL

Another assay has as its target T3, CCR6 (Homo sapiens, UniProt P51684).
T3 construct: expressed in transfected cells
T3 sequence (P51684 1-374): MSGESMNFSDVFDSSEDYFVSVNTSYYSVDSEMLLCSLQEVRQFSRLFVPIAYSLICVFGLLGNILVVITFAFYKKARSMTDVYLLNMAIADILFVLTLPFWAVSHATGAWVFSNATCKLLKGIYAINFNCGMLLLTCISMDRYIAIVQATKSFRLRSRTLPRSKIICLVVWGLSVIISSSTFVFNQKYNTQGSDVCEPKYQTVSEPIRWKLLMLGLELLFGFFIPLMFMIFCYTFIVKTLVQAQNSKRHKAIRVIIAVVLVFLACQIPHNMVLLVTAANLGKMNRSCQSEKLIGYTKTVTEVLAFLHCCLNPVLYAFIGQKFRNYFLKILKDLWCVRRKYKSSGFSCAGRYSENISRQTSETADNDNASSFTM

The target of the next assay is T4, CCR9 (Homo sapiens, UniProt P51686).
T4 construct: expressed in transfected cells
T4 sequence (P51686 1-369): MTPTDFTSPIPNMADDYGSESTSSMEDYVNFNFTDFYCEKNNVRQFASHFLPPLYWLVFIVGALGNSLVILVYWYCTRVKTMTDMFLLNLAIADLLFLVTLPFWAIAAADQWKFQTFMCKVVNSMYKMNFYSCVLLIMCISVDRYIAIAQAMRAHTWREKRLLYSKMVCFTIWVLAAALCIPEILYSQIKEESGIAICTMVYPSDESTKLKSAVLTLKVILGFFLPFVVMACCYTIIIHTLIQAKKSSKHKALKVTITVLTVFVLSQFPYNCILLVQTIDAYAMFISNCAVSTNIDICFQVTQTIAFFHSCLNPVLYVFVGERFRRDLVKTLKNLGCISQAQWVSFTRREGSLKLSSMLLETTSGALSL

The next assay deals with T5, CXCR2 (Homo sapiens, UniProt P25025).
T5 construct: expressed in transfected cells
T5 sequence (P25025 1-360): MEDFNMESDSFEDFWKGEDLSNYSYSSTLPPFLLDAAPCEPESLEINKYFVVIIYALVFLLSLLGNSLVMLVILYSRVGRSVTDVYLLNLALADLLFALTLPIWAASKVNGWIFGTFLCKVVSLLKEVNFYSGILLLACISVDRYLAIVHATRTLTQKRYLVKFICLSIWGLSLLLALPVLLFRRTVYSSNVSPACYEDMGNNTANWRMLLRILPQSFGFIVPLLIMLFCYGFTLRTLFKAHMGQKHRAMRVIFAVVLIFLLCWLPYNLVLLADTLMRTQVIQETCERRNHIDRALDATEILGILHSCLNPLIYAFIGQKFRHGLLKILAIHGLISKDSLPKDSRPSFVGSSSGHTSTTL

The target in the next assay is T6, CXCR3B (Homo sapiens, UniProt P49682).
T6 construct: expressed in transfected cells; host or cells: U87 cells
T6 sequence (P49682 1-415 isoform P49682-2): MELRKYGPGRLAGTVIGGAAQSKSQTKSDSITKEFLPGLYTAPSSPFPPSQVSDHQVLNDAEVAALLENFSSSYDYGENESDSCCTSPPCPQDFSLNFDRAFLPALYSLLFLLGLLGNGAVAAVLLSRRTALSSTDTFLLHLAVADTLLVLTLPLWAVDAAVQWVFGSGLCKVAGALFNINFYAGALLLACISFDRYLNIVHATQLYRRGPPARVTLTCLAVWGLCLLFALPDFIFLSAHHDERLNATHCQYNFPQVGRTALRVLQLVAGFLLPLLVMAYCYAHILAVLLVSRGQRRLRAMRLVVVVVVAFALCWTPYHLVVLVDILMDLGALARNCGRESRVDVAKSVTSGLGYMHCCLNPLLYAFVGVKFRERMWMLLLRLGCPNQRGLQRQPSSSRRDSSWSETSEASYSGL

As for `C[C@H](NC(=O)CNC(=O)[C@@H](NC(=O)[C@H](Cc1ccccc1)NC(=O)CNC(=O)CNC[C@@H](N)Cc1ccccc1)[C@@H](C)O)C(=O)N[C@@H](CCCNC(=N)N)C(=O)N[C@@H](CCCCN)C(=O)N[C@@H](CO)C(=O)N[C@@H](C)C(=O)N[C@@H](CCCNC(=N)N)C(=O)N[C@@H](CCCCN)C(N)=O` [FG Nociceptin 1-13] (H-[X1]GFTGARKSARK-NH2), the activation at CCR1 (replicate 1, read-out: CCR1 activity, ctrl+ = 100) was 5.65%; at CCR1 (replicate 2, read-out: CCR1 activity, ctrl+ = 100), -10.1%; at CCR1 (replicate 3, read-out: CCR1 activity, ctrl+ = 100), -16.6%; on CCR2 (replicate 1, read-out: CCR2 activity, ctrl+ = 100) it was -0.148%; on CCR2 (replicate 2, read-out: CCR2 activity, ctrl+ = 100), -0.651%; at CCR2 (replicate 3, read-out: CCR2 activity, ctrl+ = 100), 0.99%. In addition, the activation on CCR6 (replicate 1, read-out: CCR6 activity, ctrl+ = 100) is 0.145%; at CCR6 (replicate 2, read-out: CCR6 activity, ctrl+ = 100), -0.683%; at CCR6 (replicate 3, read-out: CCR6 activity, ctrl+ = 100), 5.07%; at CCR9 (replicate 1, read-out: CCR9 activity, ctrl+ = 100), -2.13%; at CCR9 (replicate 2, read-out: CCR9 activity, ctrl+ = 100) it was 0.443%; at CCR9 (replicate 3, read-out: CCR9 activity, ctrl+ = 100), 0.538%. Moreover, the activation at CXCR2 (replicate 1, read-out: CXCR2 activity, ctrl+ = 100) is -5.21%; on CXCR2 (replicate 2, read-out: CXCR2 activity, ctrl+ = 100) it was -6.16%; at CXCR2 (replicate 3, read-out: CXCR2 activity, ctrl+ = 100), -0.318%; at CXCR3B (replicate 1, read-out: CXCR3B activity, ctrl+ = 100), -0.717%; on CXCR3B (replicate 2, read-out: CXCR3B activity, ctrl+ = 100) it was 1.26%; at CXCR3B (replicate 3, read-out: CXCR3B activity, ctrl+ = 100), 8.05%.
